# Measured values: ChEMBL document CHEMBL4808171, “Structure-Activity Relationship Study and Biological Evaluation of 2-(Disubstituted phenyl)-indole-5-propanoic Acid Derivatives as GPR40 Full Agonists” (J Med Chem, 2021)
# pEC50: −log10 of the molar value. The source made the active and inactive calls. The calls are words filed in the database; no cut-off is given here.
# Molecular target: T1, Peroxisome proliferator-activated receptor gamma (Homo sapiens) (UniProt P37231)
# T1 sequence (whole entry): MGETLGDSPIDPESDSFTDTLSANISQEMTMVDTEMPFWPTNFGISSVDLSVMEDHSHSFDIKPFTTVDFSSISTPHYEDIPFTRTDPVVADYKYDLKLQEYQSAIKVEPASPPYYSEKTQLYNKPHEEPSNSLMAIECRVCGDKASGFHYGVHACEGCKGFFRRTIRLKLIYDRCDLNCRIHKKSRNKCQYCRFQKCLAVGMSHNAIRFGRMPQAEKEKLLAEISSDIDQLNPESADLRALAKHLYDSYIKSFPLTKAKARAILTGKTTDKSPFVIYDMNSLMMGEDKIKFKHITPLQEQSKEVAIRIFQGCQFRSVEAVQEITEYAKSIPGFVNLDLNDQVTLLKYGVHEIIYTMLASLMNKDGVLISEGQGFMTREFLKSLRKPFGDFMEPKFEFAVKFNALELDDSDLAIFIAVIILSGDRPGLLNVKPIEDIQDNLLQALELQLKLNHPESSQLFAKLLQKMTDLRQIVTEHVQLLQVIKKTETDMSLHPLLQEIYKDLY
# Experiment: Agonist activity at human PPARgamma expressed in CHO cells assessed as increase in receptor transcriptional activity at 1 uM incubated for 24 hrs by dual luciferase reporter gene assay relative to rosiglitazone
# Type: cell-based
# Conditions: not given
row,Emax,SMILES
1,30.6%,Cc1cc(Br)ccc1-c1cc2cc(CCC(=O)O)ccc2[nH]1
2,2.51%,Cc1ccc(-c2cc3cc(CCC(=O)O)ccc3[nH]2)c(C)c1
3,0.01%,Cc1ccc(C)c(-c2cc3cc(CCC(=O)O)ccc3n2C)c1
4,6.32%,Cc1cc(F)ccc1-c1cc2cc(CCC(=O)O)ccc2n1C
5,0.52%,Cc1cccc(C)c1-c1cc2cc(CCC(=O)O)ccc2[nH]1
6,18.3%,Cc1ccc(Cl)cc1-c1cc2cc(CCC(=O)O)ccc2[nH]1
7,3.64%,O=C(O)CCc1ccc2[nH]c(-c3ccc(Cl)cc3F)cc2c1

# Second part, the compound before the results:
row,SMILES,Emax
1,O=C(O)CCc1ccc2[nH]c(-c3ccncc3Cl)cc2c1,0.19%
2,O=C(O)CCc1ccc2[nH]c(-c3cccc(Cl)c3F)cc2c1,18.2%
3,O=C(O)CCc1ccc2[nH]c(-c3c(Cl)cccc3Cl)cc2c1,11.5%
4,O=C(O)CCc1ccc2[nH]c(-c3ccc(Cl)cc3Cl)cc2c1,5.39%
5,O=C(O)CCc1ccc2[nH]c(-c3ccc(Cl)cc3C(F)(F)F)cc2c1,15.9%
6,O=C(O)CCc1ccc2[nH]c(-c3cccc(Cl)c3Cl)cc2c1,12.8%
7,O=C(O)CCc1ccc2[nH]c(-c3cc(Cl)ccc3Cl)cc2c1,2.69%

# Same assay, conditions: filed as agonist
row,SMILES,Emax
1,Cc1cc(Cl)ccc1-c1cc2cc(CCC(=O)O)ccc2[nH]1,104%

# Molecular target: Free fatty acid receptor 1 (Homo sapiens, UniProt O14842)
# Experiment: Agonist activity at GPR40 (unknown origin) expressed in CHO cells co-expressing luc2P/SRE assessed as firefly luciferase activity at 10 uM incubated for 24 hrs hrs by Bright-Glo based serum response element (SRE) luciferase reporter assay relative to TAK875
# Type: functional, cell-based
# Conditions: not given
# Chain of Free fatty acid receptor 1 (O14842 whole entry): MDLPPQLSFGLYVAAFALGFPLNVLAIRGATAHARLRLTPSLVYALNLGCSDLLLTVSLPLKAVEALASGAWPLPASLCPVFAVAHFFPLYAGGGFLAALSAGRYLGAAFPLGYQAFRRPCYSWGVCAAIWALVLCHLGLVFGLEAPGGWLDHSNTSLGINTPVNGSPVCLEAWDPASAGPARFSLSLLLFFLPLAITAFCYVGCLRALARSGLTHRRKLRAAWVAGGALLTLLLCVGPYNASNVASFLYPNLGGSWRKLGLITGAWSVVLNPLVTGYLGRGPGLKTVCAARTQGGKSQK
row,Emax,SMILES
1,20.3%,Cc1ccc(C)c(-c2cc3cc(CCC(=O)O)ccc3n2C)c1
2,16.9%,Cc1cc(F)ccc1-c1cc2cc(CCC(=O)O)ccc2n1C
3,35%,Cc1ccc(Cl)cc1-c1cc2cc(CCC(=O)O)ccc2[nH]1
4,2.18%,O=C(O)CCc1ccc2[nH]c(-c3ccc(Cl)cc3F)cc2c1

# Second part, the compound before the results:
row,SMILES,Emax
1,O=C(O)CCc1ccc2[nH]c(-c3ccncc3Cl)cc2c1,24.7%
2,O=C(O)CCc1ccc2[nH]c(-c3cccc(Cl)c3F)cc2c1,6.81%
3,O=C(O)CCc1ccc2[nH]c(-c3ccc(Cl)cc3C(F)(F)F)cc2c1,7.67%
4,O=C(O)CCc1ccc2[nH]c(-c3cc(Cl)ccc3Cl)cc2c1,22.8%

# Same assay, conditions: filed as agonist
row,Emax,SMILES
1,95.3%,Cc1cc(Br)ccc1-c1cc2cc(CCC(=O)O)ccc2[nH]1
2,61.8%,Cc1ccc(-c2cc3cc(CCC(=O)O)ccc3[nH]2)c(C)c1
3,109%,Cc1cc(Cl)ccc1-c1cc2cc(CCC(=O)O)ccc2[nH]1
4,69.5%,Cc1cccc(C)c1-c1cc2cc(CCC(=O)O)ccc2[nH]1

# Continued, compound first:
row,SMILES,Emax
1,Cc1c(Cl)cccc1-c1cc2cc(CCC(=O)O)ccc2[nH]1,109%
2,O=C(O)CCc1ccc2[nH]c(-c3c(Cl)cccc3Cl)cc2c1,78.3%
3,O=C(O)CCc1ccc2[nH]c(-c3ccc(Cl)cc3Cl)cc2c1,48%
4,O=C(O)CCc1ccc2[nH]c(-c3cccc(Cl)c3Cl)cc2c1,81.2%

# Test system: STC1
# Experiment: Induction of GLP-1 secretion in […] STC1 cells at 100 uM after 1 hrs by ELISA
# Type: functional, cell-based
# Conditions: not given
row,SMILES,Activity
1,CCCCC/C=C\C/C=C\CCCCCCCC(=O)O,Active

# Molecular target: T2, Peroxisome proliferator-activated receptor gamma (Homo sapiens, UniProt P37231)
# T2 sequence (P37231 whole entry): T1 sequence (whole entry)
# Experiment: Agonist activity at human PPARgamma expressed in CHO cells assessed as increase in receptor transcriptional activity incubated for 24 hrs by dual luciferase reporter gene assay
# Type: cell-based
# Conditions: cho
row,SMILES,EC50
1,Cc1c(Cl)cccc1-c1cc2cc(CCC(=O)O)ccc2[nH]1,Not Active

# Same assay, conditions: read-out: EC50
row,SMILES,pEC50
1,Cc1cc(Cl)ccc1-c1cc2cc(CCC(=O)O)ccc2[nH]1,4.56
